The values that follow come from article PMC3563422 (Bioorganic & medicinal chemistry, 2012).

Molecules are shown by their SMILES. pKi: −log10 of the molar value.

Holding throughout (assay type): biochemical
For experiment [1], the target named is DENV2 NS2B/NS3pro (Dengue virus type 2, UniProt P14340). In words: In vitro DENV2 NS2B/NS3pro protease inhibition assay. To be noted: screened at 25 μM.
For experiment [2], the target named is T1, WNV NS2B/NS3pro (West Nile virus, UniProt Q9Q6P4). Put plainly: In vitro WNV NS2B/NS3pro protease inhibition assay. To be noted: screened at 25 μM.
T1 sequence (Q9Q6P4 1506-1683): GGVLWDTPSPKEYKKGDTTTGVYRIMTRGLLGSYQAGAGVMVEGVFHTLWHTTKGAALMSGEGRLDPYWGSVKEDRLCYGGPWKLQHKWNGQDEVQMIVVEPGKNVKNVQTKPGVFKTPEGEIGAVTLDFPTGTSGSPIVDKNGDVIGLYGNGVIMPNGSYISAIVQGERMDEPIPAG
The target in experiment [3] is Dengue virus protease (Dengue virus type 2, UniProt P14340). Put plainly: Kinetics analysis of DENV NS2B/NS3pro inhibition.
Chain of Dengue virus protease (P14340 1476-1653): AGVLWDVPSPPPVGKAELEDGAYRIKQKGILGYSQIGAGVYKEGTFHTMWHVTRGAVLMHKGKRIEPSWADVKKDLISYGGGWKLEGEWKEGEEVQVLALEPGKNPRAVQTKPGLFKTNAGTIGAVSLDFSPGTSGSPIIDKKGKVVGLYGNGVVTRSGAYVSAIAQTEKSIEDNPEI
Experiment [4] has as its target T1, WNV NS2B/NS3pro. Put plainly: Kinetics analysis of WNV NS2B/NS3pro inhibition. To be noted: for kcat of tetra-peptide substrate: 37 °C, WNV NS2B/NS3pro 28 nM.

Chain of DENV2 NS2B/NS3pro (P14340 1476-1653): as above

Turning to `O=C(NCc1cn(CSc2ccccc2)nn1)Nc1ccc(C(=O)Nc2ccc(Oc3ccccc3)cc2)cc1` [Compound 7a], the “activity against DENV NS2B/NS3pro (screen)” value in experiment [1] is “inactive”. Further, the “activity against WNV NS2B/NS3pro (screen)” value in experiment [2] is “inactive”.

One may read the pKi as the negative decadic logarithm of the Ki, by convention in mol/L. Lower therefore signals a large Ki. For `O=C(NCc1cn(Cc2ccc(F)cc2)nn1)Nc1ccc(C(=O)Nc2ccc(Oc3ccccc3)cc2)cc1` [Compound 7n], the figures for the pKi in experiment [3] and in experiment [4] were 5.06 and 5.26, respectively. Moreover, the “mode of inhibition of Dengue virus protease” value in experiment [3] (from kinetics data) is reported as “competitive”. Moreover, the “kcat of tetra-peptide substrate” value in experiment [4] ([7n] = 1 μM) was determined as 0.059 ± 0.0014 s⁻¹; in experiment [4] ([7n] = 3 μM), 0.062 ± 0.0018 s⁻¹; in experiment [4] ([7n] = 5 μM), 0.055 ± 0.0020 s⁻¹. Besides, the “mode of inhibition of West Nile virus protease” value in experiment [4] (from kinetics data) was “competitive”.

For the compound `O=C(NCc1cn(Cc2ccccc2)nn1)Nc1cccc(C(=O)Nc2cccc(Oc3ccccc3)c2)c1` [Compound 8f], in experiment [1], the “activity against DENV NS2B/NS3pro (screen)” value was “inactive”. Besides, the “activity against WNV NS2B/NS3pro (screen)” value in experiment [2] is “inactive”.
